Test results published in ChEMBL document CHEMBL1126455, “Syntheses of new metabolically stabilized TXA2/PGH2-receptor antagonists and their biological properties” (1992).

Tests used:
[1] = species on record: Homo sapiens; test: Potency of was determined relative to the SQ 29548 by inhibition of aggregation of human platelet rich plasma induced by 10*-6 M U 46619; format: functional
[2] = target: T1, Thromboxane A2 receptor (Homo sapiens) (UniProt P21731); test: Competition factor for Thromboxane A2 receptor/Prostaglandin H2 receptor was determined by CF=(ID50-test)/(ID50-standard)
T1 sequence (whole entry): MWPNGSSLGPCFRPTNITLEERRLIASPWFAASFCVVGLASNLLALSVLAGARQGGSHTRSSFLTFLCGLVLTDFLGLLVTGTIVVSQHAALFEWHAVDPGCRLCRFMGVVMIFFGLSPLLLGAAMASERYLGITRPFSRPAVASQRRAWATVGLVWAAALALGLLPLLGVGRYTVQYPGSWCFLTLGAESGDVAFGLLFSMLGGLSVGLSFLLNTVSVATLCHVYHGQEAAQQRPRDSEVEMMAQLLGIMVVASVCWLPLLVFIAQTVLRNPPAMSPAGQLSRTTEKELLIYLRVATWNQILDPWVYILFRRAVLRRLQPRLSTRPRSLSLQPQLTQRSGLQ

SMILES	Potency [1]	CF [2]
Cc1ccc(S(=O)(=O)NC[C@@H]2C3CC(c4ccc(F)cc4)(CO3)[C@H]2C/C=C\CCCC(=O)O)cc1 (some centres not stated)	0.01	0.4
O=C(O)CCC/C=C\C[C@H]1[C@H](NS(=O)(=O)c2ccc(F)cc2)C2CC1(c1ccc(F)cc1)CO2 (some centres not stated)	0.0004	120
O=C(O)COCCCC[C@H]1[C@H](CNS(=O)(=O)c2ccc(Cl)c(Cl)c2)C2CC1(c1ccc(-c3ccccc3)cc1)CO2 (some centres not stated)	0.03	3
O=C(O)CCC/C=C\C[C@H]1[C@H](CNS(=O)(=O)c2ccc(Cl)cc2)C2CC1(c1ccc(F)cc1)CO2 (some centres not stated)	0.01	0.2
O=C(O)COCC=CC[C@H]1[C@H](NS(=O)(=O)c2ccc(F)cc2)C2CC1(c1ccc(F)cc1)CO2 (some centres not stated)	0.003	400
O=C(O)CCC/C=C\C[C@H]1[C@H](CNS(=O)(=O)c2ccc(F)cc2)C2CC1(c1ccc(F)cc1)CO2 (some centres not stated)	0.03	0.3
O=C(O)COCCCC[C@H]1[C@H](CNS(=O)(=O)c2ccc(F)cc2)C2CC1(c1ccc(F)cc1)CO2 (some centres not stated)	0.08	0.5
O=C(O)CCCCCC[C@H]1[C@H](CNS(=O)(=O)c2ccc(Cl)c(Cl)c2)C2CC1(c1ccc(-c3ccccc3)cc1)CO2 (some centres not stated)	0.01	12
Cc1ccc(S(=O)(=O)N[C@@H]2C3CC(c4ccc(F)cc4)(CO3)[C@H]2CCCCOCC(=O)O)cc1 (some centres not stated)	0.003	27
O=C(O)CCC/C=C\C[C@H]1[C@H](CNS(=O)(=O)c2ccc(Cl)c(Cl)c2)C2CC1(c1ccc(F)cc1)CO2 (some centres not stated)	0.01	0.5
O=C(O)COCCCC[C@H]1[C@H](CNS(=O)(=O)c2ccc(Cl)c(Cl)c2)C2CC1(c1ccc(F)cc1)CO2 (some centres not stated)	0.08	0.4
Cc1ccc(S(=O)(=O)N[C@@H]2C3CC(c4ccc(F)cc4)(CO3)[C@H]2C/C=C\COCC(=O)O)cc1 (some centres not stated)	0.003	170
Cc1ccc(S(=O)(=O)NC[C@@H]2C3CC(c4ccc(F)cc4)(CO3)[C@H]2CCCCOCC(=O)O)cc1 (some centres not stated)	0.03	0.4
O=C(O)CCC/C=C\C[C@H]1[C@H](CNS(=O)(=O)c2ccc(Cl)c(Cl)c2)C2CC1(c1ccc(-c3ccccc3)cc1)CO2 (some centres not stated)	0.01	4.2
O=C(O)COCCCC[C@H]1[C@H](CNS(=O)(=O)c2ccc(Cl)cc2)C2CC1(c1ccc(F)cc1)CO2 (some centres not stated)	0.08	0.1
Cc1ccc(S(=O)(=O)N[C@@H]2C3CC(c4ccc(F)cc4)(CO3)[C@H]2C/C=C\CCCC(=O)O)cc1 (some centres not stated)	0.001	45
